Measurements: PubChem BioAssay AID1963447 (Molecular Pharmacology Branch, DTP, NCI, 2024)
“And” between values parts separate entries of the source, which are not always exact repeats. Equal values may be shown once.

Tested on: 885512-296-R-J2-PDC complex spheroid growth, % test/control
Test: Anticancer human tumor 885512-296-R-J2-PDC patient-derived breast carcinoma cell line growth inhibition [Asc]
Settings: for viability, T/C: stronger effect = lower value
Outline: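 Tumor cells were grown as complex spheroids with human endothelial cells (HUVEC) and human mesenchymal stem cells as stroma. Agents were tested alone and in combination, in half-log steps down from the clinical Cmax, or from 10 microM where Cmax was unknown.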

[1] = curve of first compound, second compound 0.03 µM
[2] = curve of first compound, second compound 0.0949 µM
[3] = curve of first compound, second compound 0.3 µM
[4] = curve of first compound, second compound 0.949 µM
[5] = curve of first compound, second compound 3 µM
[6] = second compound 0.03 µM, first compound 0.00316 µM
[7] = second compound 0.03 µM, first compound 0.01 µM
[8] = second compound 0.03 µM, first compound 0.0316 µM
[9] = second compound 0.03 µM, first compound 0.1 µM
[10] = second compound 0.03 µM, first compound 0.316 µM
[11] = second compound 0.03 µM, first compound 1 µM
[12] = second compound 0.0949 µM, first compound 0.00316 µM
[13] = second compound 0.0949 µM, first compound 0.01 µM
[14] = second compound 0.0949 µM, first compound 0.0316 µM
[15] = second compound 0.0949 µM, first compound 0.1 µM
[16] = second compound 0.0949 µM, first compound 0.316 µM
[17] = second compound 0.0949 µM, first compound 1 µM
[18] = second compound 0.3 µM, first compound 0.00316 µM
[19] = second compound 0.3 µM, first compound 0.01 µM
[20] = second compound 0.3 µM, first compound 0.0316 µM
[21] = second compound 0.3 µM, first compound 0.1 µM
[22] = second compound 0.3 µM, first compound 0.316 µM
[23] = second compound 0.3 µM, first compound 1 µM
[24] = second compound 0.949 µM, first compound 0.00316 µM
[25] = second compound 0.949 µM, first compound 0.01 µM
[26] = second compound 0.949 µM, first compound 0.0316 µM
[27] = second compound 0.949 µM, first compound 0.1 µM
[28] = second compound 0.949 µM, first compound 0.316 µM
[29] = second compound 0.949 µM, first compound 1 µM
[30] = second compound 3 µM, first compound 0.00316 µM
[31] = second compound 3 µM, first compound 0.01 µM
[32] = second compound 3 µM, first compound 0.0316 µM
[33] = second compound 3 µM, first compound 0.1 µM
[34] = second compound 3 µM, first compound 0.316 µM
[35] = second compound 3 µM, first compound 1 µM
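Further: spheroids exposed to compounds for seven days.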
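Wherever viability, T/C is given: 100% = DMSO vehicle control wells.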

CCN1CCN(Cc2ccc(Nc3ncc(F)c(-c4cc(F)c5nc(C)n(C(C)C)c5c4)n3)nc2)CC1 + CCN1C(C(=O)NC23CCC(C(=O)O)(CC2)CC3)C(c2cccc(Cl)c2F)C2(C(=O)Nc3cc(Cl)ccc32)C12CCCCC2
IC50 [1]: > 1000 nM | IC50 [2]: > 1000 nM | IC50 [3]: > 1000 nM | IC50 [4]: > 1000 nM | IC50 [5]: < 3.16 nM | viability, T/C [6]: 98.5% | viability, T/C [7]: 101% | viability, T/C [8]: 81.3% | viability, T/C [9]: 76.4% | viability, T/C [10]: 79.1% | viability, T/C [11]: 62% | viability, T/C [12]: 96.1% | viability, T/C [13]: 91.8% | viability, T/C [14]: 80.5% | viability, T/C [15]: 64.1% | viability, T/C [16]: 80.8% | viability, T/C [17]: 59.9% | viability, T/C [18]: 74.2% | viability, T/C [19]: 90.3% | viability, T/C [20]: 75.2% | viability, T/C [21]: 69% | viability, T/C [22]: 66% | viability, T/C [23]: 56.3% | viability, T/C [24]: 69.7% | viability, T/C [25]: 58.7% | viability, T/C [26]: 60.3% | viability, T/C [27]: 50.5% | viability, T/C [28]: 50.4% | viability, T/C [29]: 54.9% | viability, T/C [30]: 41.1% | viability, T/C [31]: 35.3% | viability, T/C [32]: 40.8% | viability, T/C [33]: 38.7% | viability, T/C [34]: 37.3% | viability, T/C [35]: 39.4%

O=C(c1ccc(F)c(F)c1Nc1ccc(I)cc1F)N1CC(O)([C@@H]2CCCCN2)C1 + CCN1C(C(=O)NC23CCC(C(=O)O)(CC2)CC3)C(c2cccc(Cl)c2F)C2(C(=O)Nc3cc(Cl)ccc32)C12CCCCC2
IC50 [1]: 127 nM | IC50 [2]: 148 nM | IC50 [3]: 132 nM | IC50 [4]: 55.3 nM | IC50 [5]: < 3.16 nM | viability, T/C [6]: 100% | viability, T/C [7]: 74.2% | viability, T/C [8]: 63.5% | viability, T/C [9]: 62% | viability, T/C [10]: 39.4% | viability, T/C [11]: 18.7% | viability, T/C [12]: 89.4% | viability, T/C [13]: 89.3% | viability, T/C [14]: 66.5% | viability, T/C [15]: 57.1% | viability, T/C [16]: 39.1% | viability, T/C [17]: 17.5% | viability, T/C [18]: 83.5% | viability, T/C [19]: 80.6% | viability, T/C [20]: 65.7% | viability, T/C [21]: 55.2% | viability, T/C [22]: 36.8% | viability, T/C [23]: 18.1% | viability, T/C [24]: 67.7% | viability, T/C [25]: 53.4% | viability, T/C [26]: 54% | viability, T/C [27]: 48.8% | viability, T/C [28]: 33.9% | viability, T/C [29]: 17.5% | viability, T/C [30]: 42.7% | viability, T/C [31]: 35.9% | viability, T/C [32]: 31.4% | viability, T/C [33]: 35.4% | viability, T/C [34]: 22.2% | viability, T/C [35]: 14.7%

C#Cc1c(F)ccc2cc(O)cc(-c3ncc4c(N5CC6CCC(C5)N6)nc(OCC56CCCN5CC(F)C6)nc4c3F)c12 (configuration not stated) + CNC(C)C(=O)NC1CN(S(=O)(=O)c2cccc(S(=O)(=O)N3CCC4CCC(C(=O)NC(c5ccccc5)c5ccccc5)N4C(=O)C(NC(=O)C(C)NC)C3)c2)CCC2CCC(C(=O)NC(c3ccccc3)c3ccccc3)N2C1=O
IC50 (curve of first compound, second compound 0.01 µM): > 10000 nM | IC50 (curve of first compound, second compound 0.0316 µM): > 10000 nM | IC50 (curve of first compound, second compound 0.1 µM): > 10000 nM | IC50 (curve of first compound, second compound 0.316 µM): > 10000 nM | IC50 (curve of first compound, second compound 1 µM): > 10000 nM | viability, T/C (second compound 0.01 µM, first compound 0.0316 µM): 94.5% | viability, T/C (second compound 0.01 µM, first compound 0.1 µM): 111% | viability, T/C (second compound 0.01 µM, first compound 0.316 µM): 83.5% | viability, T/C (second compound 0.01 µM, first compound 1 µM): 69.7% | viability, T/C (second compound 0.01 µM, first compound 3.16 µM): 89.9% | viability, T/C (second compound 0.01 µM, first compound 10 µM): 94.5% | viability, T/C (second compound 0.0316 µM, first compound 0.0316 µM): 102% | viability, T/C (second compound 0.0316 µM, first compound 0.1 µM): 104% | viability, T/C (second compound 0.0316 µM, first compound 0.316 µM): 96.6% | viability, T/C (second compound 0.0316 µM, first compound 1 µM): 110% | viability, T/C (second compound 0.0316 µM, first compound 3.16 µM): 108% | viability, T/C (second compound 0.0316 µM, first compound 10 µM): 91.5% | viability, T/C (second compound 0.1 µM, first compound 0.0316 µM): 102% | viability, T/C (second compound 0.1 µM, first compound 0.1 µM): 97% | viability, T/C (second compound 0.1 µM, first compound 0.316 µM): 109% | viability, T/C (second compound 0.1 µM, first compound 1 µM): 99.4% | viability, T/C (second compound 0.1 µM, first compound 3.16 µM): 108% | viability, T/C (second compound 0.1 µM, first compound 10 µM): 86.9% | viability, T/C (second compound 0.316 µM, first compound 0.0316 µM): 112% | viability, T/C (second compound 0.316 µM, first compound 0.1 µM): 109% | viability, T/C (second compound 0.316 µM, first compound 0.316 µM): 104% | viability, T/C (second compound 0.316 µM, first compound 1 µM): 112% | viability, T/C (second compound 0.316 µM, first compound 3.16 µM): 107% | viability, T/C (second compound 0.316 µM, first compound 10 µM): 86.7% | viability, T/C (second compound 1 µM, first compound 0.0316 µM): 107% | viability, T/C (second compound 1 µM, first compound 0.1 µM): 108% | viability, T/C (second compound 1 µM, first compound 0.316 µM): 116% | viability, T/C (second compound 1 µM, first compound 1 µM): 105% | viability, T/C (second compound 1 µM, first compound 3.16 µM): 105% | viability, T/C (second compound 1 µM, first compound 10 µM): 94.6%

C=C(F)C(=O)N1CCN(c2nc(OCC3CCCN3C)nc3c2CCN(c2cccc4cccc(Cl)c24)C3)CC1CC#N (configuration not stated)
viability, T/C (compound 0.0316 µM): 81.9% and 107% and 97.2% | viability, T/C (compound 0.1 µM): 97% and 114% and 90.5% | viability, T/C (compound 0.316 µM): 104% and 102% and 94.4% | viability, T/C (compound 1 µM): 97.8% and 113% and 110% | viability, T/C (compound 3.16 µM): 22% and 31.8% and 50.9% | viability, T/C (compound 10 µM): 0.17% and 0.15% and 0.14% | IC50 (curve of compound): 2040 nM and 2410 nM and 3230 nM
